The test addresses T1, human Keap1 kelch domain (amino acids Ala321-Thr609) (Homo sapiens, UniProt Q14145).
T1 construct: human Keap1 kelch domain (amino acids Ala321-Thr609)
Briefly: Keap1-Nrf2 peptide binding assay (fluorescence polarisation). Here is the method:
A fluorescence polarisation assay was used to measure binding of the human Keap1 kelch domain (amino acids Ala321-Thr609) to a fluorescently labeled peptide containing a Keap1 binding site of human Nrf2 (Alexa633-AFFAQLQLDEETGEFL; JPT Technologies, Berlin, Germany). Two microliters of test compound in reaction buffer (phosphate-buffered saline, 2 mM DL-dithiothreitol, 0.015 % (v/v) Brij-35) containing 6 % (v/v) DMSO were mixed with two microliters of the Keap1 kelch domain in reaction buffer in a black 384-well small volume microtiter plate and incubated at ambient temperature for 15 minutes. Thereafter, two microliters were added of the fluorescently labeled Nrf2 peptide in reaction buffer, and the mixture was incubated for a further 30 minutes at ambient temperature. Final concentrations of the Keap1 kelch domain and the fluorescently labeled Nrf2 peptide were 20 nM and 50 nM, respectively.
Fluorescence polarization (FP) was measured at excitation and emission wavelengths of 635 nm and 660 nm, respectively. Positive controls for binding (two microliters of reaction buffer containing 6 % (v/v) DMSO instead of test compound in the same buffer) and negative controls (as positive controls, but without Keap1 kelch domain) were included on each microtiter plate. Data were expressed as percent-inhibition values: percentinhibition = 100⋅(1-(|FPcompound-FPnegative controle|)/(|FPpositive controle-FPnegative controle|)) [formula]
IC50 values were determined by testing different compound concentrations and fitting the resulting percent-inhibition values to the following equation using XLFit4: percentinhibition = A + (B-A)/(1 + (((IC50)/([Compound])))^D) [formula]
Parameter A was set to zero, pre-fit values for parameters B and D were set to 100 and 1, respectively.

Setting [1] is: binding of Keap1 kelch domain (20 nM) to fluorescently labeled Nrf2 peptide (50 nM), read-out: IC50.
Setting [2] is: binding of Keap1 kelch domain (20 nM) to fluorescently labeled Nrf2 peptide (50 nM).

Read-outs that look alike come from different tables or passages of the source.

T1 sequence (Q14145 321-609): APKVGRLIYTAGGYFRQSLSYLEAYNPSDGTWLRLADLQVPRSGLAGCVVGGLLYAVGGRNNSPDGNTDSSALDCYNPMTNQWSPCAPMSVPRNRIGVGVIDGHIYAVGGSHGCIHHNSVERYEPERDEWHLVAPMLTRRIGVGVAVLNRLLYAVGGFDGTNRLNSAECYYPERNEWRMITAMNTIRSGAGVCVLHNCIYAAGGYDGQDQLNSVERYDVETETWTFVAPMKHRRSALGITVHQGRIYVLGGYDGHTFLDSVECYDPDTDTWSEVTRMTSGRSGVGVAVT

For orientation: IC50 means the point on the concentration scale where inhibition reaches its midpoint. For `Cc1c(S(=O)(=O)Nc2ccc(-c3cccc(C(=O)O)c3)c3ccccc23)cnn1-c1ccccc1` [Example 23, 3-[4-[(5-methyl-1-phenyl-pyrazol-4-yl)sulfonylamino]-1-naphthyl]benzoic acid], under setting [1], the 50% inhibitory concentration (IC50) turned out to be 4500 nM. As to `Cn1cc(S(=O)(=O)Nc2ccc(-c3cc(C(=O)O)ccc3F)c3ccccc23)c(C(F)(F)F)n1` [Example 78, 4-fluoro-3-[4-[[1-methyl-3-(trifluoromethyl)pyrazol-4-yl]sulfonylamino]-1-naphthyl]benzoic acid], the half-maximal inhibitory concentration (IC50) under setting [1] turned out to be 9700 nM. The same measure, in the same setting: the result for `O=C(O)c1cccc(-c2ccc(NS(=O)(=O)c3c(Cl)nc4sccn34)c3ccccc23)c1` [Example 60, 3-[4-[(6-chloroimidazo[2,1-b]thiazol-5-yl)sulfonylamino]-1-naphthyl]benzoic acid] reads 900 nM; that for `O=C(O)c1ccc(F)c(-c2ccc(NS(=O)(=O)c3cc(F)c(F)cc3Cl)c3ccccc23)c1` [Example 82, 3-[4-[(2-chloro-4,5-difluorophenyl)sulfonylamino]-1-naphthyl]-4-fluorobenzoic acid], 5100 nM; that for `Cc1ccc(F)c(S(=O)(=O)Nc2ccc(-c3cccc(C(=O)O)c3)c3ccccc23)c1` [Example 28, 3-[4-[(2-fluoro-5-methylphenyl)sulfonylamino]-1-naphthyl]benzoic acid], 5100 nM.

In the case of `O=C(O)c1ccc(F)c(-c2ccc(NS(=O)(=O)c3cccc(Cl)c3Cl)c3ccccc23)c1` [Example 74, 3-[4-[(2,3-dichlorophenyl)sulfonylamino]-1-naphthyl]-4-fluoro-benzoic acid], under setting [2], the half-maximal inhibitory concentration (IC50) turned out to be 900 nM. For the compound `Cc1nn(CC(C)C)cc1S(=O)(=O)Nc1ccc(-c2cccc(C(=O)O)c2)c2ccccc12` [Example 64, 3-[4-[(1-isobutyl-3-methyl-pyrazol-4-yl)sulfonylamino]-1-naphthyl]benzoic acid], the IC50 under setting [1] worked out at 4500 nM.

Take `O=C(O)c1ccc(F)c(-c2ccc(NS(=O)(=O)c3c(Cl)cc(C(F)(F)F)cc3Cl)c3ccccc23)c1` [Example 81, 3-[4-[[2,6-dichloro-4-(trifluoromethyl)phenyl]sulfonylamino]-1-naphthyl]-4-fluoro-benzoic acid]: the 50% inhibitory concentration (IC50) under setting [2] was 700 nM. On to `O=C(O)c1cccc(-c2ccc(NS(=O)(=O)c3c(F)cccc3F)c3ccccc23)c1` [Example 16, 3-[4-[(2,6-difluorophenyl)sulfonylamino]-1-naphthyl]benzoic acid], for which the IC50 under setting [1] was 6500 nM. Consider `Cc1nc(-c2ccc(C(F)(F)F)cc2)sc1S(=O)(=O)Nc1ccc(-c2cccc(C(=O)O)c2F)c2ccccc12` [Example 8, 2-fluoro-3-[4-[[4-methyl-2-[4-(trifluoromethyl)phenyl]thiazol-5-yl]sulfonylamino]-1-naphthyl]benzoic acid], for which, under setting [1], the IC50 was determined as 5200 nM. `O=C(O)c1cccc(-c2ccc(NS(=O)(=O)c3cc(Cl)sc3Cl)c3ccccc23)c1` [Example 49, 3-[4-[(2,5-dichloro-3-thienyl)sulfonylamino]-1-naphthyl]benzoic acid] came in with an IC50 under setting [2] of 1700 nM. Take `Cc1ccc(S(=O)(=O)Nc2ccc(-c3cccc(C(=O)O)c3)c3ccccc23)cc1` [Example 3, 3-[4-(p-tolylsulfonylamino)-1-naphthyl]benzoic acid]: under setting [1], the IC50 is 2100 nM.

Turning to `O=C1Cc2cc(S(=O)(=O)Nc3ccc(-c4cccc(C(=O)O)c4)c4ccccc34)ccc2N1` [Example 51, [4-[(2-oxoindolin-5-yl)sulfonylamino]-1-naphthyl]benzoic acid], the IC50 was 7800 nM. Turning to `Cc1c(S(=O)(=O)Nc2ccc(-c3cccc(C(=O)O)c3)c3ccccc23)cnn1CC(C)C` [Example 68, 3-[4-[(1-isobutyl-5-methyl-pyrazol-4-yl)sulfonylamino]-1-naphthyl]benzoic acid], the IC50 under setting [1] came to 2400 nM. For `Cc1ccc(Cl)cc1S(=O)(=O)Nc1ccc(-c2cccc(C(=O)O)c2)c2ccccc12` [Example 41, 3-[4-[(5-chloro-2-methylphenyl)sulfonylamino]-1-naphthyl]benzoic acid], the half-maximal inhibitory concentration (IC50) under setting [2] came to 1400 nM. In the case of `Cc1c(S(=O)(=O)Nc2ccc(-c3cc(C(=O)O)ccc3F)c3ncccc23)c2ccccc2n1C` [Example 96, 3-[5-[(1,2-dimethylindol-3-yl)sulfonylamino]-8-quinolyl]-4-fluoro-benzoic acid], under setting [1], the IC50 is 900 nM. As to `O=C(O)c1cccc(-c2ccc(NS(=O)(=O)c3ccc(F)cc3Cl)c3ccccc23)c1` [Example 35, 3-[4-[(2-chloro-4-fluorophenyl)sulfonylamino]-1-naphthyl]benzoic acid], the IC50 under setting [2] worked out at 5600 nM. As for `COc1ccc(F)c(S(=O)(=O)Nc2ccc(-c3cc(C(=O)O)ccc3F)c3ccccc23)c1` [Example 91, 4-fluoro-3-[4-[(2-fluoro-5-methoxyphenyl)sulfonylamino]-1-naphthyl]benzoic acid], the 50% inhibitory concentration (IC50) under setting [1] stood at 2200 nM.

With `Cc1cc(S(=O)(=O)Nc2ccc(-c3cccc(C(=O)O)c3)c3ccccc23)c(C)o1` [Example 58, 3-[4-[(2,5-dimethyl-3-furyl)sulfonylamino]-1-naphthyl]benzoic acid], the IC50 under setting [1] was found to be 4600 nM. The compound `O=C(O)c1ccc(F)c(-c2ccc(NS(=O)(=O)c3cc(F)cc(F)c3Cl)c3ccccc23)c1` [Example 92, 3-[4-[(2-chloro-3,5-difluorophenyl)sulfonylamino]-1-naphthyl]-4-fluorobenzoic acid] displayed an IC50 under setting [2] of 5300 nM.

As for `Cc1cc(C)c(C)c(S(=O)(=O)Nc2ccc(-c3cccc(C(=O)O)c3O)c3ccccc23)c1C` [Example 10, 2-hydroxy-3-[4-[(2,3,5,6-tetramethylphenyl)sulfonylamino]-1-naphthyl]benzoic acid], the IC50 under setting [1] was 2500 nM. Turning to `Cc1cc(Cl)c(C)c(S(=O)(=O)Nc2ccc(-c3cccc(C(=O)O)c3)c3ccccc23)c1Cl` [Example 57, 3-[4-[(2,5-dichloro-3,6-dimethylphenyl)sulfonylamino]-1-naphthyl]benzoic acid], the IC50 under setting [2] was found to be 600 nM.

Consider `O=C(O)c1cccc(-c2ccc(NS(=O)(=O)c3ccc(-n4cccn4)cc3)c3ccccc23)c1` [Example 20, 3-[4-[(4-pyrazol-1-ylphenyl)sulfonylamino]-1-naphthyl]benzoic acid], for which the IC50 under setting [1] was 4000 nM.

Regarding `CCCCn1cc(S(=O)(=O)Nc2ccc(-c3cc(C(=O)O)ccc3F)c3ccccc23)c(C)n1` [Example 70, 3-[4-[(1-butyl-3-methyl-pyrazol-4-yl)sulfonylamino]-1-naphthyl]-4-fluorobenzoic acid], the concentration for half-maximal inhibition (IC50) under setting [1] turned out to be 2600 nM. With `Cc1cc(NC(=O)N2CCOCC2)ccc1S(=O)(=O)Nc1ccc(-c2cccc(C(=O)O)c2)c2ccccc12` [Example 45, 3-[4-[[2-methyl-4-(morpholine-4-carbonylamino)phenyl]sulfonylamino]-1-naphthyl]benzoic acid], the IC50 under setting [1] worked out at 2500 nM. As for `Cc1ccc2sc(S(=O)(=O)Nc3ccc(-c4cccc(C(=O)O)c4)c4ccccc34)cc2c1` [Example 25, 3-[4-[(5-methylbenzothiophen-2-yl)sulfonylamino]-1-naphthyl]benzoic acid], the IC50 under setting [1] is 3000 nM. Turning to `Cc1nn(C)c(C)c1S(=O)(=O)Nc1ccc(-c2cccc(C(=O)O)c2)c2ccccc12` [Example 22, 3-[4-[(1,3,5-trimethylpyrazol-4-yl)sulfonylamino]-1-naphthyl]benzoic acid], the IC50 under setting [1] came out at 800 nM. Same read-out and setting: the result for `Cc1cc(C)c(C)c(S(=O)(=O)Nc2ccc(-c3ccc(F)c(C(=O)O)c3)c3ccccc23)c1C` [Example 6, 2-fluoro-5-[4-[(2,3,5,6-tetramethylphenyl)sulfonylamino]-1-naphthyl]benzoic acid] reads 1700 nM; that for `Cc1nc(C)c(S(=O)(=O)Nc2ccc(-c3cccc(C(=O)O)c3)c3ccccc23)s1` [Example 24, 3-[4-[(2,4-dimethylthiazol-5-yl)sulfonylamino]-1-naphthyl]benzoic acid], 4600 nM; that for `COc1cc(C)ccc1S(=O)(=O)Nc1ccc(-c2cc(C(=O)O)ccc2F)c2ccccc12` [Example 89, 4-fluoro-3-[4-[(2-methoxy-4-methylphenyl)sulfonylamino]-1-naphthyl]benzoic acid], 2500 nM.

For the compound `COc1ccc(S(=O)(=O)Nc2ccc(-c3cccc(C(=O)O)c3)c3ccccc23)c(OC)c1` [Example 2, 3-[4-[(2,4-dimethoxyphenyl)sulfonylamino]-1-naphthyl]benzoic acid], the IC50 under setting [1] came out at 4500 nM. In the case of `CN1CCOc2cc(S(=O)(=O)Nc3ccc(-c4cccc(C(=O)O)c4)c4ccccc34)ccc21` [Example 43, 3-[4-[(4-methyl-2,3-dihydro-1,4-benzoxazin-7-yl)sulfonylamino]-1-naphthyl]benzoic acid], the half-inhibitory concentration (IC50) under setting [2] worked out at 1600 nM. Regarding `Cc1c(S(=O)(=O)Nc2ccc(-c3cccc(C(=O)O)c3)c3ccccc23)cnn1C1CCCC1` [Example 67, 3-[4-[(1-cyclopentyl-5-methyl-pyrazol-4-yl)sulfonylamino]-1-naphthyl]benzoic acid], the IC50 under setting [1] amounted to 1800 nM.

These data come from patent EP2998294A1, “Naphthyl sulfonamide phenyl derivatives as KEAP-1 modulators for the treatment of diabetes, obesity, dyslipidemia and related disorders” (SANOFI, priority 2014, dated 2016).
